Experimental data taken from patent publication US9790202B2, “Anthranilamide derivatives as pesticides” (priority 2010, dated 2017).
Read-outs that look alike come from different tables or passages of the source.

Columns and labels:
[1] = test system: green peach aphid (Myzus persicae); test: Myzus test (MYZUPE spray treatment); format: in vivo; conditions: foliar, 144 h, read-out: efficacy in % (aphids killed)
Protocol: Myzus Test (MYZUPE Spray Treatment)
Solvent: 78 parts by weight of acetone 1.5 parts by weight of dimethylformamide
(§1) Emulsifier: 0.5 part by weight of alkylaryl polyglycol ether
(§2) To produce an appropriate active ingredient formulation, 1 part by weight of active ingredient is mixed with the stated amounts of solvent and emulsifier, and the concentrate is diluted with emulsifier-containing water to the desired concentration.
Leaf discs of Chinese cabbage (Brassica pekinensis) infested by all stages of the green peach aphid (Myzus persicae) are sprayed with an active ingredient formulation of the desired concentration.
After 6 days, the efficacy in % is determined 100% means that all aphids have been killed; 0% means that no aphids have been killed.

[2] = log P determination by HPLC on reversed-phase columns (C 18), acidic range; format: physicochemical
Protocol: The log P values reported in the table above and in the Preparation Examples were determined in accordance with EEC Directive 79/831 Annex V.A8 by HPLC (High Performance Liquid Chromatography) on reversed-phase columns (C 18), with the following methods:
The LC-MS determination in the acidic range is effected at pH 2.7 using 0.1% aqueous formic acid and acetonitrile (contains 0.1% formic acid) as eluents, linear gradient from 10% acetonitrile to 95% acetonitrile
The calibration was effected with unbranched alkan-2-ones (having 3 to 16 carbon atoms) with known log P values (log P values determined on the basis of the retention times by linear interpolation between two successive alkanones).

[3] = test system: larvae of the mustard beetle (Phaedon cochleariae); test: Phaedon test (PHAECO spray treatment), Use Example 2; format: in vivo; conditions: foliar, 168 h, read-out: efficacy in % (beetle larvae killed)
Protocol: Phaedon Test (PHAECO Spray Treatment)
(§3) Solvent: 78.0 parts by weight of acetone 1.5 parts by weight of dimethylformamide
as §1, §2
Leaf discs of Chinese cabbage (Brassica pekinensis) are sprayed with an active ingredient formulation of the desired concentration and, after drying, populated with larvae of the mustard beetle (Phaedon cochleariae).
After 7 days, the efficacy in % is determined 100% means that all beetle larvae have been killed; 0% means that no beetle larvae have been killed.

[4] = test system: caterpillars of the armyworm (Spodoptera frugiperda); test: Spodoptera frugiperda test (SPODFR spray treatment); format: in vivo; conditions: Spodoptera frugiperda, foliar, 168 h, read-out: efficacy in % (caterpillars killed)
Protocol: Spodoptera frugiperda Test (SPODFR Spray Treatment)
as §3, §1, §2
Leaf discs of maize (Zea mays) are sprayed with an active ingredient formulation of the desired concentration and, after drying, populated with caterpillars of the armyworm (Spodoptera frugiperda).
After 7 days, the efficacy in % is determined 100% means that all caterpillars have been killed; 0% means that no caterpillars have been killed.

[5] = reversed-phase C18 HPLC column, pH 2.7, HPLC reversed-phase C 18, pH 2.7, 0.1% aqueous formic acid / acetonitrile, read-out: LOGP (HCOOH)
[6] = 100 g/ha, spray on maize leaf discs, after 7 days
[7] = 100 g/ha, spray on Chinese cabbage leaf discs, after 7 days
[8] = 100 g/ha, spray on Chinese cabbage leaf discs, after 6 days

| Compound | pest or weed control at 100 g/ha ([1]; in Brassica rapa) | chromatographic logP ([2]; pH 2.7, LOGP (HCOOH)) | pest or weed control at 100 g/ha ([3]; in Brassica rapa) | pest or weed control at 100 g/ha ([4]; in Zea mays) | chromatographic logP [2, 5] | pest or weed control at 100 g/ha [4, 6] | further results |
| --- | --- | --- | --- | --- | --- | --- | --- |
| CNC(=O)c1cc(-n2cncn2)cc(C)c1NC(=O)c1cc(Cn2nnc(C(F)(F)F)n2)nn1-c1ncccc1Cl [Compound 36] | 100% | 2.25 | 100% | 100% |  |  |  |
| CNC(=O)c1cc(C(C)=O)cc(C)c1NC(=O)c1cc(Cn2nnc(C(F)(F)F)n2)nn1-c1ncccc1Cl [Compound 8] |  | 2.53 |  | 100% |  |  |  |
| CNC(=O)c1cc(C(N)=O)cc(C)c1NC(=O)c1cc(Cn2nnc(C(F)(F)F)n2)nn1-c1ncccc1Cl [Compound 17] | 100% | 1.94 | 100% | 100% |  |  |  |
| CC(=O)c1cc(C)c(NC(=O)c2cc(Cn3nnc(C(F)(F)F)n3)nn2-c2ccccc2Cl)c(C(=O)NC(C)C2CC2)c1 (stereo not drawn) [Compound 14] |  |  |  |  | 3.74 | 100% |  |
| Cc1cc(C2OCCCO2)cc(C(=O)NC(C)(C)C)c1NC(=O)c1cc(Cn2nnc(C(F)(F)F)n2)nn1-c1ncccc1Cl [Compound 38] |  | 3.37 |  | 100% |  |  |  |
| CC(=O)c1cc(C)c(NC(=O)c2cc(Cn3nnc(C(F)(F)F)n3)nn2-c2ccccc2Cl)c(C(=O)NC(C)(C)C)c1 [Compound 12] |  |  |  |  | 3.76 | 100% |  |
| CCNC(=O)c1cc(C(C)=O)cc(C)c1NC(=O)c1cc(Cn2nnc(C(F)(F)F)n2)nn1-c1ccccc1Cl [Compound 16] |  |  |  |  | 3.27 | 100% |  |
| Cc1cc(C(N)=S)cc(C(=O)NC(C)(C)C)c1NC(=O)c1cc(Cn2nnc(C(F)(F)C(F)(F)F)n2)nn1-c1ncccc1Cl [Compound 26] | 100% | 3.26 | 100% | 100% |  |  |  |
| CNC(=O)c1cc(C(=O)OC)cc(C)c1NC(=O)c1cc(Cn2nnc(C(F)(F)F)n2)nn1-c1ccccc1Cl [Compound 30] |  |  |  |  | 3.28 | 100% |  |
| CC(=O)c1cc(C)c(NC(=O)c2cc(Cn3nnc(C(F)(F)F)n3)nn2-c2ccccc2Cl)c(C(=O)NC(C)C)c1 [Compound 13] |  |  |  |  | 3.46 | 100% | pest or weed control at 100 g/ha [3, 7]: 100% |
| Cc1cc(C2OCCO2)cc(C(=O)NC(C)(C)C)c1NC(=O)c1cc(Cn2nnc(C(F)(F)F)n2)nn1-c1ncccc1Cl [Compound 33] | 100% | 3.22 |  | 100% |  |  |  |
| Cc1cc(C(=O)OC2CCC2)cc(C(=O)NC(C)(C)C)c1NC(=O)c1cc(Cn2nnc(C(F)(F)F)n2)nn1-c1ncccc1Cl [Compound 31] |  |  |  |  | 4.37 |  |  |
| Cc1cc(C(=O)OCC2CC2)cc(C(=O)NC(C)(C)C)c1NC(=O)c1cc(Cn2nnc(C(F)(F)C(F)(F)F)n2)nn1-c1ncccc1Cl [Compound 28] |  |  |  |  | 4.54 | 100% |  |
| Cc1cc(C(N)=O)cc(C(=O)NC(C)(C)C)c1NC(=O)c1cc(Cn2nnc(C(F)(F)F)n2)nn1-c1ncccc1Cl [Compound 18] | 90% | 2.5 | 100% | 100% |  |  |  |
| CC(=O)c1cc(C)c(NC(=O)c2cc(Cn3nnc(C(F)(F)F)n3)nn2-c2ncccc2Cl)c(C(=O)NC(C)C2CC2)c1 (stereo not drawn) [Compound 11] |  | 3.23 | 100% | 100% |  |  |  |
| Cc1cc(C(=O)OCC2CCC2)cc(C(=O)NC(C)(C)C)c1NC(=O)c1cc(Cn2nnc(C(F)(F)F)n2)nn1-c1ncccc1Cl [Compound 29] |  |  |  |  | 4.62 | 100% |  |
| CNC(=O)c1cc(-n2cncn2)cc(C)c1NC(=O)c1cc(Cn2nnc(C(F)(F)C(F)(F)F)n2)nn1-c1ncccc1Cl [Compound 37] | 80% |  | 100% | 100% |  |  |  |
| CNC(=O)c1cc(C(N)=S)cc(C)c1NC(=O)c1cc(Cn2nnc(C(F)(F)C(F)(F)F)n2)nn1-c1ncccc1Cl [Compound 25] | 100% | 2.64 | 100% | 100% |  |  |  |
| CNC(=O)c1cc(-n2ccc(C(F)(F)F)n2)cc(C)c1NC(=O)c1cc(Cn2nnc(C(F)(F)F)n2)nn1-c1ncccc1Cl [Compound 34] |  | 3.48 | 100% | 100% |  |  |  |
| CNC(=O)c1cc(-n2ccc(C(F)(F)F)n2)cc(C)c1NC(=O)c1cc(Cn2nnc(C(F)(F)C(F)(F)F)n2)nn1-c1ncccc1Cl [Compound 35] |  |  |  |  | 3.86 | 100% | pest or weed control at 100 g/ha [3, 7]: 100% |
| COC(=O)c1cc(C)c(NC(=O)c2cc(Cn3nnc(C(F)(F)C(F)(F)F)n3)nn2-c2ncccc2Cl)c(C(=O)NC(C)(C)C)c1 [Compound 27] |  |  |  |  | 3.85 | 100% | pest or weed control at 100 g/ha [1, 8]: 90%; pest or weed control at 100 g/ha [3, 7]: 100% |
| Cc1cc(C(N)=S)cc(C(=O)NC(C)(C)C)c1NC(=O)c1cc(Cn2nnc(C(F)(F)F)n2)nn1-c1ncccc1Cl [Compound 22] | 90% | 2.89 | 100% | 100% |  |  |  |
| COC(=O)c1cc(C)c(N)c(C(=O)NC(C)(C)C)c1 [Example No. B, methyl 4-amino-3-(tert-butylcarbamoyl)-5-methylbenzoate] |  |  |  |  |  |  | chromatographic logP ([2]; reversed-phase C18 HPLC column, pH 2.7, Preparation Example, HPLC reversed-phase C 18, read-out: log P): 2.48 |
| Cc1cc(C(N)=O)cc(C(N)=O)c1NC(=O)c1cc(Cn2nnc(C(F)(F)F)n2)nn1-c1ncccc1Cl [Compound 21] | 80% | 1.83 | 100% | 100% |  |  |  |
| CC(=O)c1cc(C)c(NC(=O)c2cc(Cn3nnc(C(F)(F)F)n3)nn2-c2ncccc2Cl)c(C(=O)NC(C)C)c1 [Compound 9] |  | 2.94 |  | 100% |  |  |  |
| CNC(=O)c1cc(C(N)=S)cc(C)c1NC(=O)c1cc(Cn2nnc(C(F)(F)F)n2)nn1-c1ccccc1Cl [Compound 24] |  |  |  |  | 2.65 | 100% | pest or weed control at 100 g/ha [1, 8]: 90%; pest or weed control at 100 g/ha [3, 7]: 100% |
| Cc1cc(C(N)=O)cc(C(=O)NC(C)C)c1NC(=O)c1cc(Cn2nnc(C(F)(F)F)n2)nn1-c1ncccc1Cl [Compound 19] |  | 2.27 | 100% | 100% |  |  |  |
| CC(=O)c1cc(C)c(NC(=O)c2cc(Cn3nnc(C(F)(F)F)n3)nn2-c2ncccc2Cl)c(C(=O)NC2CC2)c1 [Compound 10] |  | 2.73 |  | 100% |  |  |  |
| Cc1cc(C(N)=O)cc(C(=O)NC2CC2)c1NC(=O)c1cc(Cn2nnc(C(F)(F)F)n2)nn1-c1ncccc1Cl [Compound 20] |  | 2.11 | 83% | 100% |  |  |  |
| Cc1cc(C2OCC(C)(C)CO2)cc(C(=O)NC(C)(C)C)c1NC(=O)c1cc(Cn2nnc(C(F)(F)F)n2)nn1-c1ncccc1Cl [Compound 39] |  |  |  |  | 4.07 | 100% |  |
